This note sets out measurements from ChEMBL document CHEMBL1201862, “PubChem BioAssay data set” (2004).

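All cell lines were grown in 96-well plates and treated with compound for 48 hours. Here, GI50 denotes the concentration required for 50% inhibition of growth.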 The source made the active and inactive calls. No stated cut-off is given here; in the data, active = GI50 up to about 1.1 µM and inactive = higher. Some results are limits rather than exact numbers.

Among the test systems are ACHN; CAKI-1; EKVX; HCT-116; HCT-15; M14; MOLT-4; Malme-3M; NCI-H226; NCI-H23; NCI-H460; OVCAR-4; OVCAR-8; SF-268; SF-295; SK-MEL-28; SK-OV-3; U-251; UACC-62; UO-31.
Holding throughout (experiment): inhibition of tumour cell growth, NCI panel, 48 h

For the compound `COc1ccc(C2=C(Cl)c3cc(OC)c(OC)cc3C2Cl)cc1` (stereo not given), the GI50 was 13.9 µM (inactive) with ACHN; 15.4 µM (inactive) in the assay on CAKI-1; 16.9 µM (inactive) in the assay with EKVX; 14.2 µM (inactive) with HCT-116; 12.3 µM in the assay on HCT-15; 17.2 µM (inactive) in the assay on M14. In addition, the GI50 with MOLT-4 is 4.34 µM (inactive); in the assay with Malme-3M it was 19.1 µM (inactive); in the assay with NCI-H226, 21.3 µM (inactive); with NCI-H23, > 37.4 µM (inactive); in the assay with NCI-H460 it was 9.71 µM (inactive); in the assay with OVCAR-4 it was 13.6 µM (inactive). Also, the GI50 in the assay with OVCAR-8 was 16.5 µM (inactive); in the assay with SF-268 it was 16 µM (inactive); with SF-295, 15.4 µM (inactive); with SK-MEL-28, 16 µM (inactive); in the assay on SK-OV-3, 13.6 µM (inactive); with U-251, 13.7 µM (inactive). In addition, the GI50 in the assay on UACC-62 was 14.6 µM (inactive); with UO-31 it was 6.55 µM (inactive).
Take `CN(C)c1ccc(/C=N/c2ccc(Oc3ccc(Cl)cc3)c(Cl)c2)cc1`: the GI50 is 28.6 µM (inactive) in the assay with ACHN; 21.3 µM (inactive) in the assay on CAKI-1; 17.5 µM (inactive) with EKVX; 5.2 µM (inactive) in the assay with HCT-116; 18.9 µM in the assay with HCT-15; 28.1 µM (inactive) in the assay with M14. Also, the GI50 with MOLT-4 is 18.5 µM (inactive); in the assay with Malme-3M, 15.3 µM (inactive); in the assay on NCI-H226 it was 21.6 µM (inactive); in the assay with NCI-H23, 19 µM (inactive); in the assay on NCI-H460, 19.5 µM (inactive); with OVCAR-4, 22.1 µM (inactive). Also, the GI50 with OVCAR-8 is 17.5 µM (inactive); in the assay on SF-268 it was 13.7 µM (inactive); in the assay on SF-295 it was 24.7 µM (inactive); in the assay on SK-MEL-28 it was 19.3 µM (inactive); in the assay on SK-OV-3 it was 26.8 µM (inactive); in the assay with U-251 it was 16.9 µM (inactive). Further, the figures for the GI50 with UACC-62 and in the assay with UO-31 were 17.5 µM (inactive) and 10.7 µM (inactive), respectively.
For `CCN(CC)CCNCc1cc(Cl)cc2c1OCOC2`, the GI50 in the assay with ACHN is > 10 µM (inactive); in the assay with CAKI-1, > 10 µM (inactive); in the assay with EKVX, > 10 µM (inactive); in the assay with HCT-116, > 10 µM (inactive); in the assay with HCT-15, above 10 µM; in the assay with M14 it was > 10 µM (inactive). Moreover, the GI50 in the assay on MOLT-4, with Malme-3M, in the assay on NCI-H226, in the assay with NCI-H23, in the assay with NCI-H460 and in the assay with OVCAR-4 was > 10 µM (inactive) each time. Further, the GI50 in the assay on OVCAR-8, in the assay with SF-268, in the assay on SF-295, in the assay on SK-MEL-28, in the assay on SK-OV-3 and in the assay on U-251 was > 10 µM (inactive) throughout. The GI50 in the assay on UACC-62 and in the assay with UO-31 was > 10 µM (inactive) each time.
Consider `Cc1cc(C)c2c(n1)S(=O)(=O)N(CCCN1CCN(c3cccc(C(F)(F)F)c3)CC1)C(C(=O)c1ccccc1)=C2O`, for which the GI50 with ACHN was 9.04 µM (inactive); in the assay on CAKI-1, 2.79 µM (inactive); in the assay with EKVX, 4 µM (inactive); in the assay with HCT-116, 4.38 µM (inactive); in the assay with HCT-15, 4.62 µM; in the assay with M14 it was 7.36 µM (inactive). Besides, the GI50 is 2.67 µM (inactive) in the assay with MOLT-4; 18.4 µM (inactive) in the assay on Malme-3M; 1.03 µM (active) with NCI-H226; 5.06 µM (inactive) in the assay with NCI-H23; 4.66 µM (inactive) with NCI-H460; 4.66 µM (inactive) in the assay with OVCAR-4. The GI50 was 5.66 µM (inactive) in the assay on OVCAR-8; 8.51 µM (inactive) in the assay with SF-268; 4.11 µM (inactive) in the assay with SF-295; 9.64 µM (inactive) in the assay on SK-MEL-28; 20 µM (inactive) in the assay with SK-OV-3; 5.4 µM (inactive) with U-251. For the same compound, the GI50 in the assay with UACC-62 was 10.2 µM (inactive); with UO-31, 5.42 µM (inactive).
